{"source": "patent US20050020671A1", "about": "“Pharmaceutical formulation” (priority 2001, published 2005)", "assay": "chemical compatibility of ranitidine hydrochloride and acetylsalicylic acid in contact", "format": "physicochemical", "details": "the two actives in physical contact; degradation products form, reaction manifest in a matter of days", "text": "British Patent No 2,105,193 discloses pharmaceutical compositions comprising a systemic non-steroidal anti-inflammatory drug and ranitidine or a physiologically acceptable salt thereof. […] These two active ingredients react chemically with each other to produce degradation products. The reaction becomes manifest in a matter of days and implies a serious stability problem for pharmaceutical compositions containing both active ingredients.", "note": "Structures can show the parent of a compound that is named as a salt."}
{"smiles": "CNC(=C[N+](=O)[O-])NCCSCc1ccc(CN(C)C)o1", "note": "[ranitidine hydrochloride, N-[2-[[[5-(dimethylamino)methyl]-2-furanyl]methyl]thio]ethyl-N′-methyl-2-nitro-1,1-ethanediamine]", "values": [{"measurement": "chemical compatibility with acetylsalicylic acid", "result": "clear chemical incompatibility"}]}
